# Measured values from patent US8648115B2 (priority 2009, dated 2014).
# Values joined by “and” are separate entries in the source; they are usually repeats but may differ in a detail not shown here. Identical values can stand only once. Like-named read-outs stand apart in the source and are kept apart here.
# How the values were obtained:
# Phytophthora infestans [1] = assay: microbe, parasite or virus in culture; format: cell-based
# Phytophthora infestans [2] = assay: microbe, parasite or virus in culture; format: cell-based; details: for IC50: Phytophthora infestans, read-out: Phytophtora infestans (mycelial growth) IC 50
# Phytophthora infestans [3] = format: cell-based; details: lower concentrations (1-100 μM drops); three-week old mycelium; 24 h
# Colletotrichum coccodes = Colletotrichum coccodes mycelial growth bioassay (OD590); format: cell-based
# Description: FIG. 6: Inhibitory effect of (E)-4-oxohexadec-2-enoic acid on the mycelial growth of Colletotrichum coccodes. One-day old mycelium in 96-well plates was inoculated with different (E)-4-oxohexadec-2-enoic acid concentrations. The growth of C. coccodes was determined by measuring the OD590. The experiment was repeated twice, with identical results.
# C. coccodes (CBS369.75) was grown for five days in 50 ml of liquid soybean medium in the dark at 18° C. on a rotary shaker. In order to isolate spores, all of the culture was centrifuged for 5 min at 2100 g and 4° C. The supernatant, which contained the spores, was recentrifuged (10 min, 6500 g, 4° C.). After the supernatant had been decantered off, the pelleted spores were washed carefully in deionized water, centrifuged as above and finally the spore concentration was adjusted to 1×10^5 spores/ml in soybean medium. To carry out the biotest, 200 μl of this spore solution were pipetted into each well of a 96-well plate (Nunc A/S, Denmark). The plates were incubated in an incubator for 24 h at 17° C. in the dark to allow germination. Then, test concentrations of (E)-4-oxohexadec-2-enoic acid were pipetted in as described above, with final concentrations of from 0.01 μM to 100 μM and 2% (v/v) ethanol. The plates were returned into the incubator and the increase in fungal biomass was determined by daily OD590 measurements.
# To determine whether (E)-4-oxohexadec-2-enoic acid also has an inhibitory effect on the ascomycete c. coccodes, the causative organism of, inter alia, black dot disease of potato, a multiwell bioassay was set up. The growth of the fungus in liquid medium was determined on the basis of the measurement of the optical density (OD590). A medium containing soya was used for this purpose. One-day old mycelium was inoculated together with various concentrations of (E)-4-oxohexadec-2-enoic acid, and the growth of C. coccodes was determined every 24 h. […] Increasing concentrations reduced the fungal growth even further.
# Phytophthora infestans [4] = format: in vivo; details: 3 days after inoculation
# [5] = test system: Potato plants (Solanum tuberosum L. cv. Désirée); details: in vivo
# [6] = Phytophthora infestans, read-out: Phytophthora infestans (spore germination) IC 50, spore germination
# [7] = read-out: Phytophthora infestans (spore germination) IC 50, spore germination
smiles,measurement,setting,value
CCCC(=O)/C=C/C(=O)O,IC50,Phytophthora infestans [1]; [6],14 nM and 0.0019 µg/mL
O=C(O)/C=C/C(=O)CCCCCCCCCCF,IC50,Phytophthora infestans [1]; [6],70 nM and 0.018 µg/mL
same,IC50,Phytophthora infestans [2],80 µM and 20.7 µg/mL
CCCCCCCCCCCCCCCCCCC(=O)/C=C/C(=O)O,IC50,Phytophthora infestans [1]; [6],100 nM and 0.035 µg/mL
CCCCCCCCCCCCC(=O)/C=C/C(=O)O [(E)-4-oxohexadec-2-enoic acid],Spore germination,"Phytophthora infestans [1]; 10 nM, 24 h",reduced
same,Reduction of spore germination compared with the ethanol control,"Phytophthora infestans [1]; 100 nM, 24 h",more than 50%
same,Spores germinated,"Phytophthora infestans [1]; 1 μM, 24 h",< 10%
same,Spore germination,"Phytophthora infestans [1]; 3.7 μM, 24 h",prevented completely
same,Spore lysis,Phytophthora infestans [1]; 100 μM,spore lysis was observed
same,Length of the germination tubes,Phytophthora infestans [1]; increasing concentrations,had an effect on the length of the germination tubes
same,Mycelial growth (GFP fluorescence),"Phytophthora infestans [2]; 1 mM, one-day old mycelium",growth was inhibited
same,Viability of mature mycelium,Phytophthora infestans [3],clear negative effect on mycelia viability
same,Growth of C. coccodes,Colletotrichum coccodes; 0.01 μM,significant inhibitory effect
same,Inhibition of growth of C. coccodes compared with the ethanol control,Colletotrichum coccodes; 1 μM,more than half
same,Growth of C. coccodes,Colletotrichum coccodes; 100 μM,complete inhibition
CCCCCC(=O)/C=C/C(=O)O [drawing 5],IC50,Phytophthora infestans [1]; [6],0.002 µg/mL
same,IC50,Phytophthora infestans [1]; [7],12 nM
CCCCCC(=O)/C=C/C(=O)O [drawing 6],IC50,Phytophthora infestans [1]; [6],14 nM
CCCCCCCCCCCCC(=O)/C=C/C(=O)O [drawing 8],IC50,Phytophthora infestans [1]; [6],70 nM and 0.0018 µg/mL
same,IC50,Phytophthora infestans [2],450 µM and 121 µg/mL
CCCCCCCCCCCCC(=O)/C=C/C(=O)[O-].[K+] [drawing 9],IC50,Phytophthora infestans [1]; [6],0.018 µg/mL
same,IC50,Phytophthora infestans [1]; [7],60 nM
"CCCCCCCCCCCCC(=O)/C=C/C(=O)[O-].[Na+] [sodium (E)-4-oxohexadec-2-enoate, Sodium (E)-4-oxohexadec-2-enoate]",Inhibition of infection with P. infestans compared with untreated control plants,Phytophthora infestans [4]; 10 μM spray 2 h before inoculation,80%
same,Inhibition of infection with P. infestans compared with untreated control plants,Phytophthora infestans [4]; 100 μM spray 2 h before inoculation,95%
same,Toxic effects on the leaves,[5],no toxic effects on the leaves
